The values below are quoted from earlier work in patent US11773445B1, “Diagnostic methods” (GRIFFITH UNIVERSITY, priority 2015, dated 2023).

The conditions of this data set: CFS patients; multiple Rituximab infusions.

Regarding “Rituximab: drug given as multiple infusions to CFS patients in a cited study; anti-CD20 intervention”, the patients responded was 15 of 25.
